Measurements published in patent US11034932B2, “Composition capable of promoting the growth of denitrifying microorganisms and uses thereof” (CHINA PETROLEUM & CHEMICAL CORPORATION, priority 2016, dated 2021).

What follows are molecules tested on denitrifying microorganisms (assay: AO wastewater treatment with promoter 1# plus additive (Example 2)). Details: additive (0.05-0.10 mg/L) added along with promoter 1#; process as example 1.
Method: Hereunder the present invention will be detailed in examples. In the following examples, the COD concentration is measured with the method specified in GB11914-89 “Water Quality—Determination of Chemical Oxygen Demand—Dichromate Method”; the ammonia nitrogen concentration is measured with the method specified in GB7478-87 “Water Quality—Determination of Ammonium—Distillation and Titration Method”; the concentration of nitrite nitrogen is measured with the method specified in GB7493-87 “Water Quality—Determination of Nitrite Nitrogen—Spectrophotometric Method”; the total nitrogen concentration is measured with the method specified in GB11894-89 “Water Quality—Determination of Total Nitrogen—UV Spectrophotometric Method—Alkaline Potassium Persulfate Digestion Method”.
The wastewater is treated according to the treatment process and operating condition described in example 1, but: an additive is added in a certain amount along with the promoter 1#.
Wherein the formic acid hydroxylamine is obtained by mixing a formic acid and a hydroxylamine at 1:1 molar ratio; the acetic acid hydroxylamine is obtained by mixing an acetic acid and a hydroxylamine at 1:1 molar ratio; both of them are […] after they are prepared.

`NCCCNCCCCNCCCN` [Spermine] and `NCCCCNCCCN` [Spermidine] are within 1.5-fold of each other in “COD in outputted water” value: 47.9 mg/L for the first, 48.4 mg/L for the second.

In the case of `O=S([O-])[O-].[Na+].[Na+]` [Na2SO3], the “COD in outputted water” value is reported as 44.3 mg/L.

`NCCCNCCCCNCCCN` [Spermine] and `NCCCCNCCCN` [Spermidine] are within 1.5-fold of each other in “NH3—N in outputted water” value: 9.3 mg/L for the first, 8.9 mg/L for the second.

In the case of `O=S([O-])[O-].[Na+].[Na+]` [Na2SO3], the “NH3—N in outputted water” value is reported as 10.0 mg/L.

Compared with `NCCCNCCCCNCCCN` [Spermine], `NCCCCNCCCN` [Spermidine] is 2-fold higher in “NO2^—N in outputted water” value: 0.1 mg/L for the first, 0.2 mg/L for the second.

`O=S([O-])[O-].[Na+].[Na+]` [Na2SO3] was tested, and the “NO2^—N in outputted water” value was 0.2 mg/L.

`NCCCNCCCCNCCCN` [Spermine] and `NCCCCNCCCN` [Spermidine] are within 1.5-fold of each other in “TN in outputted water” value: 21.3 mg/L for the first, 23.9 mg/L for the second.

In the case of `O=S([O-])[O-].[Na+].[Na+]` [Na2SO3], the “TN in outputted water” value is reported as 18.2 mg/L.
